Tests used:
[1] = 101 kPa, Liquid
[2] = xn = mol fraction of the nth substance listed; conditions: 101 kPa, Liquid

C1CCCC1 [cyclopentane]
[1]
Conditions | mass density [kg/m3]
298.15 K | 733.634
308.15 K | 726.571

CCCCCCCO [heptan-1-ol] + C1CCCC1
[2], x2 = 0
Conditions | mass density [kg/m3]
298.15 K | 818.813
308.15 K | 811.73

CCCCCCCO [heptan-1-ol]
[1]
Conditions | mass density [kg/m3]
298.15 K | 818.813
308.15 K | 811.73

CCCCCO [pentan-1-ol]
[1]
Conditions | mass density [kg/m3]
298.15 K | 811.037
308.15 K | 803.683

CCCCCO [pentan-1-ol] + C1CCCC1
[2], x2 = 0
Conditions | mass density [kg/m3]
298.15 K | 811.037
308.15 K | 803.683

CCCO [propan-1-ol]
[1]
Conditions | mass density [kg/m3]
298.15 K | 799.813
308.15 K | 791.692

C1CCCC1 [cyclopentane] + CCCCCCCO
mass density [kg/m3], [2]
Conditions | 298.15 K | 308.15 K
x1 = 0.0632 | 815.837 | 808.629
x1 = 0.1965 | 808.334 | 800.856
x1 = 0.3173 | 800.287 | 792.895
x1 = 0.4244 | 793.064 | 785.675
x1 = 0.4606 | 790.282 | 782.889
x1 = 0.5084 | 786.531 | 779.091
x1 = 0.6664 | 772.628 | 764.753
x1 = 0.7675 | 762.185 | 754.805
x1 = 0.8534 | 752.769 | 745.466
x1 = 0.9644 | 739.018 | 731.663
x1 = 1 | 733.634 | 726.571

CCCO [propan-1-ol] + C1CCCC1
[2], x2 = 0
Conditions | mass density [kg/m3]
298.15 K | 799.813
308.15 K | 791.692

C1CCCC1 [cyclopentane] + CCCCCO
mass density [kg/m3], [2]
Conditions | 298.15 K | 308.15 K
x1 = 0.0155 | 810.22 | 802.763
x1 = 0.1886 | 799.34 | 791.417
x1 = 0.2742 | 793.439 | 785.673
x1 = 0.3746 | 786.395 | 778.336
x1 = 0.3884 | 785.467 | 777.389
x1 = 0.4798 | 779.082 | 770.553
x1 = 0.5738 | 771.559 | 763.458
x1 = 0.6868 | 762.096 | 754.298
x1 = 0.7543 | 756.486 | 748.638
x1 = 0.8131 | 751.07 | 743.306
x1 = 0.9079 | 742.377 | 735.151
x1 = 1 | 733.634 | 726.571

C1CCCC1 [cyclopentane] + CCCO
mass density [kg/m3], [2]
Conditions | 298.15 K | 308.15 K
x1 = 0.0553 | 795.275 | 786.98
x1 = 0.1627 | 786.754 | 778.045
x1 = 0.2341 | 781.37 | 772.538
x1 = 0.3137 | 775.778 | 766.718
x1 = 0.4691 | 764.862 | 755.363
x1 = 0.5666 | 758.623 | 748.897
x1 = 0.6338 | 754.486 | 744.566
x1 = 0.7688 | 746.451 | 737.144
x1 = 0.8446 | 742.132 | 733.21
x1 = 0.9167 | 738.181 | 729.51
x1 = 1 | 733.634 | 726.571
